Measurements as given in ChEMBL document CHEMBL1139152, “Epoxygenase eicosanoids: synthesis of tetrahydrofuran-diol metabolites and their vasoactivity” (Bioorg Med Chem Lett, 2007).
The source made the active and inactive calls. No cut-off for these calls is given here.

What was measured:
[1] = Vasodilatory activity assessed as relaxation of U46619-induced contraction of bovine coronary arteries at 10 nM to 10 uM; assay type: functional, tissue-based; settings: Bos taurus, Coronary artery
[2] = Vasodilatory activity assessed as relaxation of U46619-induced contraction of bovine coronary arteries; assay type: functional; settings: Bos taurus; Coronary artery

SMILES	Activity [1]	ED50 [2] [nM]
CCCCC/C=C\C[C@@H]1O[C@H]([C@H](O)C/C=C\CCCC(=O)O)C[C@@H]1O	Active	
CCCCCC1OC1C/C=C/C/C=C/C/C=C/CCCC(=O)O (centres undefined)	Active	2500
CCCCC/C=C\C[C@H]1O[C@H]([C@H](O)C/C=C\CCCC(=O)O)C[C@@H]1O	Active	
CCCCC/C=C\C[C@H]1O[C@H]([C@@H](O)C/C=C\CCCC(=O)O)C[C@@H]1O	Active	
CCCCC/C=C\C[C@H]1O[C@H]([C@H](O)C/C=C\CCCC(=O)O)C[C@H]1O	Active	3000
CCCCC/C=C\C[C@@H]1O[C@H]([C@H](O)C/C=C\CCCC(=O)O)C[C@H]1O	Active	
CCCCC/C=C\C[C@H]1O[C@H]([C@@H](O)C/C=C\CCCC(=O)O)C[C@H]1O	Active	
